From PMC7397269, “Synthesis and Evaluation of New Coumarin Derivatives as Antioxidant, Antimicrobial, and Anti-Inflammatory Agents” (Molecules, 2020)
≈ marks a conversion by molar mass, not a printed value. Where “and” joins values, the source holds several entries; their conditions need not be identical. Equal entries are not always repeated. Where two headings read alike, the source gives them in different places.

How the values were obtained:
[1] = tested on: Bacillus subtilis ATCC 6633; assay: Agar well diffusion, B. subtilis; assay type: cell-based; settings: ATCC6633, 100 μL of 10 mg/mL in DMSO, read-out: diameter of inhibition zone, BS
In short: (§1)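 Bacterial lawns (100 μL of 1 × 10^8 CFU/mL) were spread on nutrient agar and yeast lawns (1 × 10^6 CFU/mL) on Sabouraud dextrose agar. 10 mm wells received 100 μL of compound at 10 mg/mL in DMSO, and plates were incubated 24 h at 37 °C. Inhibition zone diameter (mm) was averaged over triplicates.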

[2] = tested on: formaldehyde-induced rat paw oedema; assay: Formaldehyde-induced rat paw oedema (prophylactic); assay type: in vivo; settings: for paw volume reduced compared to positive control: 25 mg/kg orally
[3] = DPPH antioxidant assay (radical scavenging); assay type: biochemical; settings: mean ± SD (n = 3)
In short: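 Compounds, starting at 200 μg/mL, were mixed with 0.2 mM methanolic DPPH and incubated 30 min in the dark at 25 °C; absorbance was read at 515 nm. % inhibition is background-corrected against DPPH-only control, with IC50 from curve fit. Runs were triplicate (mean ± SD), with ascorbic acid as positive control.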

[4] = tested on: Saccharomyces cerevisiae local isolate; assay: Agar well diffusion, S. cerevisiae; assay type: cell-based; settings: read-out: diameter of inhibition zone, SC
In short: as §1

[5] = tested on: Candida albicans NRRL Y-477; assay: Agar well diffusion, C. albicans; assay type: cell-based; settings: NRRLY477, 100 μL of 10 mg/mL in DMSO, read-out: diameter of inhibition zone, CA
In short: as §1

[6] = tested on: Staphylococcus aureus ATCC 29213; assay: Agar well diffusion, S. aureus; assay type: cell-based; settings: ATCC29213, 100 μL of 10 mg/mL in DMSO, read-out: diameter of inhibition zone, SA
In short: as §1

[7] = tested on: Escherichia coli ATCC 2592; assay: Agar well diffusion, E. coli; assay type: cell-based; settings: ATCC2592, 100 μL of 10 mg/mL in DMSO, read-out: diameter of inhibition zone, EC
In short: as §1

[8] = tested on: Bacillus subtilis ATCC 6633; assay: MIC, two-fold serial dilution, B. subtilis; assay type: cell-based; settings: ATCC6633, read-out: Minimum inhibitory concentration, BS
Excerpt: (§2) The new molecules were individually tested for their antimicrobial activity in vitro against standard bacteria strains from the American Type Culture Collection (ATCC), namely, Staphylococcus aureus ATCC 29213, Bacillus subtilis ATCC 6633, Bacillus megaterium ATCC 9885 (Gram-positive), Escherichia coli ATCC 2592, and Pseudomonas aeruginosa ATCC 27,953 (Gram-negative). The compounds were also microbiologically tested against locally isolated Saccharomyces cerevisiae (yeast) and the standard Agricultural Research Service Culture Collection (NRRL) strain of the yeast-like pathogenic fungus Candida albicans NRRL Y-477. Primary screening was conducted using the agar well diffusion method using nutrient agar (NA) medium and Sabourand dextrose agar (SDA) medium for the tested pathological bacteria and yeast, respectively. […].
(§3) The bacteriostatic activity of the active compounds (having IZ > 16 mm) was then evaluated using the two-fold serial dilution technique. Two-fold serial dilutions of the tested compounds solutions were prepared using the proper nutrient broth to reach final concentrations of 1000, 500, 250, and 125 μg/mL. The tubes were then inoculated with the test microorganisms grown in their suitable broth at 37 °C for 24 h (1 × 10^8 CFU/mL for bacteria and 1 × 10^6 CFU/mL of yeast), 0.1 mL of the above inoculum was administered per 5 mL, and the tubes were incubated at 37 °C for 24 h. The lowest concentration showing no growth was taken as the MIC.

[9] = tested on: Bacillus megaterium ATCC 9885; assay: Agar well diffusion, B. megaterium; assay type: cell-based; settings: Priestia megaterium, ATCC9885, 100 μL of 10 mg/mL in DMSO, read-out: diameter of inhibition zone, BM
In short: as §1

COX-1 = target: T1, COX-1 (Homo sapiens, UniProt P23219); assay: COX-1 inhibition, Cayman assay kit; assay type: biochemical; settings: mean of two determinations
T1 construct: purchased Cayman Chemical 701070

trypsin = assay: Proteinase-inhibitory activity; assay type: biochemical; settings: 250 µg/mL; mean ± SD (n = 3)
In short: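 Trypsin (0.06 mg per 2 mL, 20 mM Tris-HCl pH 7.4) was preincubated 5 min with test sample at 250 µg/mL, then 0.8% casein was added for 20 min. Perchloric acid stopped the reaction and supernatant absorbance was read at 280 nm. % inhibition is relative to the no-sample control, in triplicate.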

COX-2 = target: T2, COX-2 (Homo sapiens, UniProt P35354); assay: COX-2 inhibition, Cayman assay kit; assay type: biochemical; settings: for IC50: mean of two determinations; for SI, selectivity index (COX-1/COX-2): ratio of COX-1/COX-2 IC50
T2 construct: purchased Cayman Chemical 701080
T2 sequence (P35354 18-604): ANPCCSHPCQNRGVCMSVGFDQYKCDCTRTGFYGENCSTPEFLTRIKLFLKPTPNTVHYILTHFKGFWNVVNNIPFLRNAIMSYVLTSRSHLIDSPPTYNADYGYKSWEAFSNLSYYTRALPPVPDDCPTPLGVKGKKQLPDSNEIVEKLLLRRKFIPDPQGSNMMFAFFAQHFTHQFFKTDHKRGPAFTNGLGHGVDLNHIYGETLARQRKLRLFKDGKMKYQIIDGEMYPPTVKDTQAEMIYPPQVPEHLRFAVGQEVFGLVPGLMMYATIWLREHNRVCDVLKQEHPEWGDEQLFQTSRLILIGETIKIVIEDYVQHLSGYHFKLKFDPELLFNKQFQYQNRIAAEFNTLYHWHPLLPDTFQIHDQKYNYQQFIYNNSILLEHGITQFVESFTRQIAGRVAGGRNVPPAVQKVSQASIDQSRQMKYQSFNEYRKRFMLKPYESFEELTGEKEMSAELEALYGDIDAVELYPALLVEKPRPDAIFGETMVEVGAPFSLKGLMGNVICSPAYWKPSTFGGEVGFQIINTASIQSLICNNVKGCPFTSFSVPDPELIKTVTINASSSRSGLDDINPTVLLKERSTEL

[10] = tested on: Pseudomonas aeruginosa ATCC 27,953; assay: Agar well diffusion, P. aeruginosa; assay type: cell-based; settings: ATCC27, 100 μL of 10 mg/mL in DMSO, read-out: diameter of inhibition zone, PA
In short: as §1

[11] = tested on: Staphylococcus aureus ATCC 29213; assay: MIC, two-fold serial dilution, S. aureus; assay type: cell-based; settings: ATCC29213, read-out: Minimum inhibitory concentration, SA
Excerpt: as §2, §3

[12] = tested on: Pseudomonas aeruginosa ATCC 27,953; assay: MIC, two-fold serial dilution, P. aeruginosa; assay type: cell-based; settings: ATCC27, read-out: Minimum inhibitory concentration, PA
Excerpt: as §2, §3

tested microorganisms = assay: MIC, summary over the tested microorganisms; assay type: cell-based; settings: two-fold serial dilution
Excerpt: as §2, §3

[13] = tested on: Bacillus megaterium ATCC 9885; assay: MIC, two-fold serial dilution, B. megaterium; assay type: cell-based; settings: Priestia megaterium, ATCC9885, read-out: Minimum inhibitory concentration, BM
Excerpt: as §2, §3

[14] = tested on: Saccharomyces cerevisiae local isolate; assay: MIC, two-fold serial dilution, S. cerevisiae; assay type: cell-based; settings: read-out: Minimum inhibitory concentration, SC
Excerpt: as §2, §3

[15] = tested on: Candida albicans NRRL Y-477; assay: MIC, two-fold serial dilution, C. albicans; assay type: cell-based; settings: NRRLY477, read-out: Minimum inhibitory concentration, CA
Excerpt: as §2, §3

[16] = tested on: Escherichia coli ATCC 2592; assay: MIC, two-fold serial dilution, E. coli; assay type: cell-based; settings: ATCC2592, read-out: Minimum inhibitory concentration, EC
Excerpt: as §2, §3

[17] = well diffusion, 100 μL of 10 mg/mL in DMSO, S. cerevisiae
[18] = read-out: MIC against one or more tested microorganisms
[19] = two-fold serial dilution, S. cerevisiae

T1 sequence (P23219 24-599): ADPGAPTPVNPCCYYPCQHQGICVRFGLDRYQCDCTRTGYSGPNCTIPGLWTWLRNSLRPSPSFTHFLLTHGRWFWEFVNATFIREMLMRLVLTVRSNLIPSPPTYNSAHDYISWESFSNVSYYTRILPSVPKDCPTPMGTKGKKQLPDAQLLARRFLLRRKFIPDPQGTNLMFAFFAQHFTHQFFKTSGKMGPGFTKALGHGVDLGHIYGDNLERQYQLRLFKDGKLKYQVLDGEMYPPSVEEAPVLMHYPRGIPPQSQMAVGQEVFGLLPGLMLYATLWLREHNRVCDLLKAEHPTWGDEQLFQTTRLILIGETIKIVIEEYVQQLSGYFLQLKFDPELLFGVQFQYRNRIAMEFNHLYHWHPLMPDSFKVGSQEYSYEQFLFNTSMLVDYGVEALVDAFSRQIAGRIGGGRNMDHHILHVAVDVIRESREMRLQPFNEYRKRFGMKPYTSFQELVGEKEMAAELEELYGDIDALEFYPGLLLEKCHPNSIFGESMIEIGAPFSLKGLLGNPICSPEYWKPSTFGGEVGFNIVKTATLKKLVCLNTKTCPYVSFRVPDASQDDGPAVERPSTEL

Row | Structure (SMILES) | zone of inhibition at 10000 µg/mL [1] [mm] | melting point [°C] | IC50 [3] | zone of inhibition at 10000 µg/mL [4] [mm] | zone of inhibition at 10000 µg/mL [5] [mm] | zone of inhibition at 10000 µg/mL [6] [mm] | zone of inhibition at 10000 µg/mL [7] [mm] | MIC [8] [µg/mL] | zone of inhibition at 10000 µg/mL [9] [mm] | IC50 (COX-1) [µM] | % Inhibition (proteinase) (trypsin) [%] | IC50 (COX-2) [µM] | SI, selectivity index (COX-1/COX-2) (COX-2) | zone of inhibition at 10000 µg/mL [10] [mm] | MIC [11] [µg/mL] | MIC [12] [µg/mL] | MIC [13] [µg/mL] | MIC [15] [µg/mL] | MIC [16] [µg/mL] | zone of inhibition at 10000 µg/mL [4, 17] [mm] | also measured
1 | Cc1ccc2oc(=O)c3c(c2c1)OC(N)=C(C(N)=O)C3c1ccc([N+](=O)[O-])cc1 (racemic) [3a, (±)-2-Amino-9-methyl-4-(4-nitrophenyl)-5-oxo-4H,5H-pyrano[3,2-c]chromene-3-carboxamide] | 18 | 142 to 144 | — ((—): inactive (IC50 > 200 μg/mL)) | < 15 | < 15 | < 15 | 16 | 1000 (≈ 2540 µM) | 16 | 183 | 79.72 ± 4.51 | 9.81 | 18.68 | 15 | – | – | – | – | – | – | % inhibition of paw oedema ([2]; 2.5 mg/kg orally, 1 h after inducing inflammation): 29.2%
2 | Cc1ccc2oc(=O)c3c(c2c1)OC(/N=C/c1ccccc1)=C(C#N)C3c1ccc([N+](=O)[O-])cc1 (racemic) [5a, (±)-2-(benzylideneamino)-9-methyl-4-(4-nitrophenyl)-5-oxo-4H,5H-pyrano[3,2-c]chromene-3-carbonitrile] | 27 | 208 to 209 | — ((—): inactive (IC50 > 200 μg/mL)) | 26 | 25 | 25 | 26 | 250 (≈ 539 µM) | 22 | 1130 | – | 7.41 | 152 and 152.02 | 24 | 250 (≈ 539 µM) | 500 (≈ 1080 µM) | 500 (≈ 1080 µM) | 500 (≈ 1080 µM) | 250 (≈ 539 µM) | – | MIC (tested microorganisms; read-out: MIC against most tested microorganisms): 250 to 500 µg/mL (≈ 539 to 1080 µM); MIC [14]: 500 µg/mL (≈ 1080 µM)
3 | O=C(/C=C/c1ccc(Cl)cc1)c1ccc(NS(=O)(=O)c2c(O)c3cc(Cl)ccc3oc2=O)cc1 [9c, (E)-6-Chloro-N-(4-(3-(4-chlorophenyl)acryloyl)phenyl)-4-hydroxy-2-oxo-2H-chromene-3-sulfonamide] | 29 | 157 to 159 | — ((—): inactive (IC50 > 200 μg/mL)) | – | 30 | 28 | 30 | 250 (≈ 484 µM) | 30 | – | 17.6 ± 6.86 | – | – | 30 | 250 (≈ 484 µM) | 250 (≈ 484 µM) | 250 (≈ 484 µM) | 125 (≈ 242 µM) | 250 (≈ 484 µM) | 31 to 32 | MIC (tested microorganisms; [18]): 125 µg/mL (≈ 242 µM); MIC [14, 19]: 125 µg/mL (≈ 242 µM)
4 | Cc1ccc2oc(=O)c(S(=O)(=O)Nc3ccc(C(=O)/C=C/c4ccc(Cl)cc4)cc3)c(O)c2c1 [9d, (E)-N-(4-(3-(4-chlorophenyl)acryloyl)phenyl)-4-hydroxy-6-methyl-2-oxo-2H-chromene-3-sulfonamide] | 29 | 141 to 143 | — ((—): inactive (IC50 > 200 μg/mL)) | – | 30 | 28 | 38 | 250 (≈ 504 µM) | 29 | – | 31.88 ± 3.82 | – | – | 29 | 250 (≈ 504 µM) | 250 (≈ 504 µM) | 250 (≈ 504 µM) | 125 (≈ 252 µM) | 250 (≈ 504 µM) | 31 to 32 | MIC (tested microorganisms; [18]): 125 µg/mL (≈ 252 µM); MIC [14, 19]: 125 µg/mL (≈ 252 µM)
5 | COc1ccc2c(c1)c(CC(=O)O)c(C)n2C(=O)c1ccc(Cl)cc1 [Indomethacin, reference compound] | – | – | – | – | – | – | – | – | – | – | – | – | – | – | – | – | – | – | – | – | paw volume reduced compared to positive control ([2]; 1 h after formaldehyde): 72.09%; paw volume reduced compared to positive control ([2]; 2 h after formaldehyde): 74.79%; paw volume reduced compared to positive control ([2]; 3 h after formaldehyde): 71.5%
